Series [1] deals with B16-F10 melanoma. The experiment in a line: Intratumoral treatment of subcutaneous B16-F10 melanoma, tumor growth. The class given is in vivo, mouse. As to conditions: stand-alone, 0.3mg (10mg/kg) or 1mg (30mg/kg) intratumoral, three times per week for four weeks, C57BL/6 mice.
The test system of another series is sialic acid expression. The experiment in a line: Sialic acid expression in tumor tissue and other organs after intratumoral injections (lectin flow cytometry). The class given is in vivo, mouse. The following applies: after 3 intratumoral injections. Background: A flow cytometer gives signals particle by particle.
A further series has as its system CD8+ cells. The series can be described thus: Tumor infiltration of immune cells after intratumoral injections (flow cytometry). The series is classed as in vivo, mouse. As to conditions: after 3 intratumoral injections, 0.3mg.
Series [2] concerns B16-F10 melanoma. The experiment in a line: Effect on B16-F10 tumor growth after depletion of effector immune cells. The series is classed as in vivo, mouse.
For series [3], the system named is B16-F10 melanoma. The series can be described thus: Combination with CpG in B16-F10 melanoma, tumor growth and survival. The class given is in vivo, mouse. The following applies: CpG combination study; P-3Fax-Neu5Ac 0.3mg intratumoral three times per week and/or CpG 100μg peritumoral day 14 and 21.
The subject of another series is 9464D neuroblastoma. The experiment in a line: Intratumoral treatment of subcutaneous 9464D neuroblastoma, tumor growth. As to conditions: 10mg/kg or 20m/kg intratumoral three times per week until day 50, C57BL/6 mice. The series is classed as in vivo, mouse.
Series [4] concerns Mouse bone marrow-derived dendritic cells. The series can be described thus: TLR-mediated maturation of mouse bone marrow-derived dendritic cells (CD80). The class given is cell-based. As to conditions: three days with P-3Fax-Neu5Ac, then 24 hours LPS, CpG or polyI/C.
Series [5] deals with Human monocyte-derived dendritic cells. The series can be described thus: TLR-mediated maturation of human monocyte-derived dendritic cells (CD80). The series is classed as cell-based. As to conditions: six donors, four days with P-3Fax-Neu5Ac, then 24 hours polyI/C, R848 or LPS.
Another series deals with mouse melanoma cells. The following applies: cited from earlier work.
For the next series, the system named is mammalian cells. As to conditions: Rillahan et al, 2012, cited from earlier work.
For another series, the system named is tumor cells. As to conditions: Büll et al, 2013; cited from earlier work.
The next series has as its system melanoma cells. As to conditions: Büll et al, 2013; cited from earlier work.

Data on two compounds can be found in patent publication WO2016071431A1, “A combination for cancer therapy” (Stichting Katholieke Universiteit, priority 2014, dated 2016).

Entries after “also recorded” stand apart in the source; their conditions may differ. Read-outs that look alike come from different tables or passages of the source. In the oligonucleotide strings, read from the 5' end, every base follows the letter of its sugar. An asterisk marks phosphorothioate; unmarked linkages are phosphodiester. Other units and linkages are bracketed, terminal groups are in braces. A string of capitals states the bases alone. [s2] = phosphorodithioate linkage; d = 2'-deoxy (DNA)

Take `COC(=O)C1(OC(C)=O)OC(C(OC(C)=O)C(COC(C)=O)OC(C)=O)C(NC(C)=O)C(OC(C)=O)C1F` (stereo not shown) [P-3Fax-Neu5Ac]: the values for the tumor growth result in the series on B16-F10 melanoma [1], with B16-F10 melanoma [1] (listed as glycomimetic) and with 9464D neuroblastoma were “hamper B 16-F 10 melanoma growth; also recorded: antagonizes tumor growth in a dose-dependent manner”, “delayed tumor growth modestly” and “hamper 9464D neuroblastoma growth”, respectively. Besides, the “sialic acid expression in tumor tissue” value with sialic acid expression (0.3mg or 1mg, MALII, SNA-I or PNA lectin) is on record as “block sialic acid expression in the tumor mass; also recorded: reduction of sialic acid expression in the isolated tumor tissue”. The “sialic acid expression in other organs such as the spleen” value in the series on sialic acid expression (fluorescent sialic acid binding lectins) is “not other organs such as the spleen”. The “infiltration of immune cells in the tumor” value in the series with CD8+ cells is on record as “enhanced infiltration of immune cells, especially CD8+ cells in the tumor”. The “tumor growth suppression mediated by CD8+ cells” value in the series with B16-F10 melanoma [2] (B16-F10 melanoma model, CD8+ depleted versus non-depleted mice) was “mediated by effector CD8+ immune cells”. For the same compound, the “effect of sialic acid blockade on tumor growth upon CD4+ cell depletion” value in the series with B16-F10 melanoma [2] (CD4+ cell depletion, 0.3mg intratumoral three times per week) was “unaffected”. Further, in the series with B16-F10 melanoma [2] (CD8+ cell depletion, 0.3mg intratumoral three times per week), the “effect of sialic acid blockade on tumor growth upon CD8+ cell depletion” value is given as “CD8+ cell depletion abrogated the effect of sialic acid blockade on tumor growth”. The “effect of sialic acid blockade on tumor growth upon K1.1+ cell depletion” value in the series on B16-F10 melanoma [2] (K1.1+ cell depletion, 0.3mg intratumoral three times per week) is “unaffected”. In the series with B16-F10 melanoma [3], the “median survival time / survival time” value is on record as “slightly prolonged the survival time”. The “activation / maturation of dendritic cells (CD80 expression)” value in series [4] and in series [5] was “enhances APC maturation with TLR ligands; also recorded: strongly enhances activation of dendritic cells” throughout. The “expression of sialic acids in melanoma / cancer cells” value was “potently blocks sialic acid synthesis and expression in cancer cells” in the series with mouse melanoma cells (Büll et al, 2013, listed as glycomimetic); “blocks the expression of sialic acids in mouse melanoma cells with high efficiency” in the series on mouse melanoma cells (Büll et al, 2013). Besides, in the series on mouse melanoma cells (Büll et al, 2013), the “duration of the blocking effect” value is given as “almost four days”. Further, the “depletion of sialic acids from mammalian cells” value in the series on mammalian cells is listed as “deplete sialic acids from mammalian cells”. Further, in the series on mammalian cells (mammalian cells), the cellular cytotoxicity entry is reported as “without causing cellular cytotoxicity”. For the same compound, the “adhesion and migration of tumor cells” value with tumor cells was “can impair adhesion and migration of tumor cells”. Moreover, in the series on melanoma cells, the “growth of melanoma cells treated with the inhibitor before injection into mice” value was “grow significantly slower”.
Turning to “CpG: CpG oligodeoxynucleotide immune adjuvant; more preferred: phosphodithioate backbone and sequence 5'-TCCATGACGTTCCTGATGCT-3' (DNA dT[s2]dC[s2]dC[s2]dA[s2]dT[s2]dG[s2]dA[s2]dC[s2]dG[s2]dT[s2]dT[s2]dC[s2]dC[s2]dT[s2]dG[s2]dA[s2]dT[s2]dG[s2]dC[s2]dT)”, in the series with B16-F10 melanoma [3], the “median survival time / survival time” value was “no effect on tumor growth and median survival time”; the tumor growth entry is given as “almost no effect on tumor growth”.
